Experimental data: ChEMBL document CHEMBL3124790, “Antibacterial properties and mode of action of new triaryl butene citrate compounds” (Eur J Med Chem, 2014)
Converted amounts (≈) assume the structure as drawn. The source made the active and inactive calls. The rule behind the calls is not given here.

Legend:
Listeria ivanovii [1] = assay: Antimicrobial activity against Listeria ivanovii HPB20 assessed as appearance of swollen and severely damaged morphology at 5 times MIC after 5 mins by transmission electron microscopy analysis; type: functional
Listeria monocytogenes [2] = assay: Antimicrobial activity against Listeria monocytogenes assessed as induction of K+ efflux assessed per mg of cell dry weight at 2 to 5 times MIC after 30 mins by spectrometry analysis; type: functional
Enterococcus faecalis = assay: Antimicrobial activity against Enterococcus faecalis ATCC 27275 after 24 hrs by polystyrene micro-assay; type: functional; conditions: ATCC 27275, 24 h
Listeria ivanovii [3] = assay: Antimicrobial activity against Listeria ivanovii HPB20 assessed as loss of integrity at 5 times MIC after 5 mins by transmission electron microscopy analysis; type: functional
Listeria monocytogenes [4] = assay: Antimicrobial activity against Listeria monocytogenes LSD 532 after 24 hrs by polystyrene micro-assay; type: functional; conditions: LSD 532, 24 h
Listeria monocytogenes [5] = assay: Antimicrobial activity against Listeria monocytogenes assessed as induction of Na+ efflux assessed per mg of cell dry weight at 5 times MIC after 30 mins by spectrometry analysis; type: functional
Listeria monocytogenes [6] = assay: Antimicrobial activity against Listeria monocytogenes LMA 1045 after 24 hrs by polystyrene micro-assay; type: functional; conditions: LMA 1045, 24 h
Listeria ivanovii [7] = assay: Antimicrobial activity against Listeria ivanovii HPB28 after 24 hrs by polystyrene micro-assay; type: functional; conditions: HPB28, 24 h
Staphylococcus aureus = assay: Antimicrobial activity against Staphylococcus aureus ATCC 6538 after 24 hrs by polystyrene micro-assay; type: functional; conditions: ATCC 6538, 24 h
Escherichia coli [8] = assay: Antimicrobial activity against Escherichia coli MC4100 assessed as uniform electron density of cytoplasm and formation of mesosome-like structure at 5 times MIC after 5 mins by transmission electron microscopy analysis; type: functional, organism-based
[9] = Hemolytic activity in erythrocytes (unknown origin) after 1 hr; type: ADME, cell-based, Erythrocyte
Listeria monocytogenes [10] = assay: Antimicrobial activity against Listeria monocytogenes assessed as induction of K+ efflux assessed per mg of cell dry weight at MIC after 30 mins by spectrometry analysis; type: functional
Escherichia coli [11] = assay: Antimicrobial activity against Escherichia coli MC4100 assessed as damage of inner or outer membranes at 5 times MIC after 5 mins by transmission electron microscopy analysis; type: functional, organism-based
Escherichia coli [12] = assay: Antimicrobial activity against Escherichia coli MC4100 after 24 hrs by polystyrene micro-assay; type: functional; conditions: MC4100, 24 h
Escherichia coli [13] = assay: Antimicrobial activity against Escherichia coli MC4100 assessed as blurred boundaries and highly altered cell walls at 5 times MIC after 5 mins by transmission electron microscopy analysis; type: functional, organism-based
Pseudomonas aeruginosa = assay: Antimicrobial activity against Pseudomonas aeruginosa ATCC 15442 after 24 hrs by polystyrene micro-assay; type: functional; conditions: ATCC 15442, 24 h
Escherichia coli [14] = assay: Antimicrobial activity against Escherichia coli ATCC 11229 after 24 hrs by polystyrene micro-assay; type: functional; conditions: ATCC 11229, 24 h
[15] = system: Salmonella enterica subsp. enterica; assay: Antimicrobial activity against Salmonella enterica ATCC 14028 after 24 hrs by polystyrene micro-assay; type: functional; conditions: ATCC 14028, 24 h
Listeria monocytogenes [16] = assay: Antimicrobial activity against Listeria monocytogenes assessed as induction of K+ efflux assessed per mg of cell dry weight at 2 ug/ml after 30 mins by spectrometry analysis; type: functional
Listeria monocytogenes [17] = assay: Antimicrobial activity against Listeria monocytogenes assessed as induction of Na+ efflux assessed per mg of cell dry weight at 2 ug/ml after 30 mins by spectrometry analysis; type: functional
Listeria ivanovii [18] = assay: Antimicrobial activity against Listeria ivanovii HPB20 assessed as condensed and localized intracellular content at 5 times MIC after 5 mins by transmission electron microscopy analysis; type: functional, cell-based

With `CCC(=C(c1ccc(OCCCN(C)C)cc1)c1ccc(OCCCN(C)C)cc1)c1ccccc1.O=C(O)CC(O)(CC(=O)O)C(=O)O` as the molecule, how does the Activity (Listeria ivanovii [1]) read?
The Activity was “Active”.

What about the Activity (Listeria monocytogenes [2]) of the same molecule?
Its Activity is 344 nmol.

And the MIC (Enterococcus faecalis)?
Its MIC is 80 µM.

What about the Activity (Listeria ivanovii [3]) of the same molecule?
Its Activity is “Active”.

What about the MIC (Listeria monocytogenes [4]) of the same molecule?
Its MIC is 31 µM.

What about the Activity (Listeria monocytogenes [5]) of the same molecule?
The Activity was 68%.

And the MIC (Listeria monocytogenes [6])?
The MIC was 62 µM.

And the MIC (Listeria ivanovii [7])?
Its MIC is 25 µM.

And the MIC (Staphylococcus aureus)?
Its MIC is 31 µM.

And the Activity (Escherichia coli [8])?
The Activity was “Active”.

And the HC50 at 1 h [9]?
Its HC50 at 1 h is 67.1 µM.

What about the Activity (Listeria monocytogenes [10]) of the same molecule?
Its Activity is 183.74 nmol.

And the Activity (Escherichia coli [11])?
Its Activity is “Active”.

What about the MIC (Escherichia coli [12]) of the same molecule?
The MIC was 50 µM.

What about the Activity (Escherichia coli [13]) of the same molecule?
Its Activity is “Active”.

And the MIC (Pseudomonas aeruginosa)?
Its MIC is over 5000 µM.

What about the MIC (Escherichia coli [14]) of the same molecule?
The MIC was 50 µM.

What about the MIC [15] of the same molecule?
Its MIC is 1250 µM.

What does the source list for `C=C(NC(=O)[C@@H](NC(=O)[C@H](Cc1cnc[nH]1)NC(=O)[C@@H](NC(=O)[C@H](CO)NC(=O)[C@@H]1CSC(C)[C@@H]2NC(=O)[C@H](C)NC(=O)[C@@H](NC(=O)N(CCCCN)C(=O)[C@H](CCCCN)NC(=O)[C@@H](CCSC)NC(=O)[C@H](CC(N)=O)NC(=O)[C@@H]3CSC(C)[C@H](NC(=O)[C@H](CCCCN)NC(=O)[C@@H]4CSC(C)[C@H](NC(=O)[C@@H]5CSC[C@H](NC(=O)/C(=C/C)NC(=O)[C@@H](N)[C@@H](C)CC)C(=O)N[C@@H](CC(C)C)C(=O)NC(=C)C(=O)N[C@@H](CC(C)C)C(=O)N5)C(=O)N5CCC[C@H]5C(=O)NCC(=O)N4)C(=O)NCC(=O)N[C@@H](C)C(=O)N[C@@H](CC(C)C)C(=O)N[C@H](CCSC)C(=O)NCC(=O)N3)C(C)SC[C@H](NC2=O)C(=O)N[C@@H](Cc2cnc[nH]2)C(=O)N1)[C@@H](C)CC)C(C)C)C(=O)N[C@@H](CCCCN)C(=O)O` (stereo not given in full)?
Activity (Listeria monocytogenes [16]): 361.79 nmol; Activity (Listeria monocytogenes [17]): 635.96 nmol

Which Activity (Listeria ivanovii [1]) does the source give for `CN(C)CCCOc1ccc(C(=C2CCc3ccccc32)c2ccc(OCCCN(C)C)cc2)cc1` here?
The Activity was “Active”.

And the MIC (Enterococcus faecalis)?
The MIC was 40 µM (≈ 19.4 µg/mL).

And the Activity (Listeria ivanovii [3])?
The Activity was “Active”.

What about the MIC (Listeria monocytogenes [4]) of the same molecule?
Its MIC is 31 µM (≈ 15 µg/mL).

And the MIC (Listeria monocytogenes [6])?
Its MIC is 62 µM (≈ 30.1 µg/mL).

And the MIC (Listeria ivanovii [7])?
Its MIC is 25 µM (≈ 12.1 µg/mL).

And the MIC (Staphylococcus aureus)?
Its MIC is 31 µM (≈ 15 µg/mL).

What about the HC50 at 1 h [9] of the same molecule?
The HC50 at 1 h was 68.6 µM.

What about the Activity (Escherichia coli [11]) of the same molecule?
Its Activity is “Active”.

What about the MIC (Escherichia coli [12]) of the same molecule?
The MIC was 100 µM (≈ 48.5 µg/mL).

And the Activity (Escherichia coli [13])?
Its Activity is “Active”.

What about the Activity (Listeria ivanovii [18]) of the same molecule?
The Activity was “Active”.

What about the MIC (Pseudomonas aeruginosa) of the same molecule?
Its MIC is 2500 µM (≈ 1210 µg/mL).

And the MIC (Escherichia coli [14])?
Its MIC is 100 µM (≈ 48.5 µg/mL).

What about the MIC [15] of the same molecule?
Its MIC is 2500 µM (≈ 1210 µg/mL).
